Assay results as given in patent US20200147149A1, “COMPOSITIONS AND METHODS FOR THE MODULATION OF GUT SENSORY CELLS” (Duke University, priority 2017, published 2020).
“Also recorded” adds a separate entry of the source.

Legend:
[1] = system: intestinal CCK enteroendocrine cells; assay: Calcium imaging (GCaMP6s) of enteroendocrine cells in CckCRE_tdTomato intestinal organoids; assay type: cell-based, mouse; conditions: n=3
Experimental: For neurons, Phox2bCRE_GCaMP6s (n=3) nodose neurons were dissociated and plated. Nodose ganglia were dissected and digested in Liberase (Roche, 5401054001). Neurons were washed and filtered through a 70 μm cell strainer, then plated on 12 mm coverslips and placed in an incubator overnight. Cells were imaged 1-2 days later. Coverslips were placed in the recording chamber of a Zeiss Examiner Z1 and imaged with a Hamamatsu camera (Orca-flash4.0; C11440) using the Zeiss ZEN software package. For enteroendocrine cells, CckCRE_tdTomato organoids with transduced with ΔG-rabies-GCaMP6s. Organoids were imaged using multi photon microscopy 3-4 days after transduction. Imaging buffer (in mM: 140 NaCl, 5 KCl, 2 CaCl2, 2 MgCl2, 10 HEPES) was continuously perfused over the coverslips. […] Images were analyzed with Fiji ([…]), and cell traces were plotted with Matlab.

[2] = system: vagal nodose neurons connected to enteroendocrine cells; assay: Patch-clamp electrophysiology of nodose neurons co-cultured with enteroendocrine cells; assay type: cell-based, mouse; conditions: D-glucose (10 mM); for excitatory postsynaptic potentials and action potentials in connected neurons: co-culture
Experimental: The small intestines of CckGFP and CckCRE_ChR2-tdTomato mice were dissected and flushed twice with cold PBS. The intestine was cut open lengthwise and cut again into ˜1 cm pieces. Tissue pieces were incubated with 3 mM EDTA at 4° C. for 15 minutes then at 37° C. for 15 minutes. New cold PBS was added and villi and crypts were mechanically detached. Villi and crypts were spun down and further digested in Collagenase and Dispase. Cells were spun down and re-suspended in L-15 media with 5% FBS and DNase to prevent cell clumping. Cells were passed through a 70 μm then 40 μm cell strainer to isolate single cells. Then cells were sorted using Fluorescence Activated Cell sorting (BD FACSAria) selecting for GFP fluorescence cells. Cells were sorted into culture media: 10 μl/ml Glutamax, 10 μl/ml HEPES, 20 μl/ml Penicillin-Streptomycin, 10 μl/ml N2 supplement, 20 μl/ml B27 supplement, 0.25 μl/ml EGF, 0.5 μl/ml Noggin, 1 μl/ml r-Spondin and 1 μl/ml NGF in Advanced DMEM/f12. Sorted cells were plated on Matrigel coated 12 mm coverslips at a concentration of ˜8-10 k enteroendocrine cells per coverslip. Nodose neurons were dissected and incubated with Liberase digestion enzyme. Enzyme was washed off and replaced with media. Single cells were dissociated by mechanical force and filtered through a 70 μm cell strainer. Neurons in media were plated evenly on up to 8 coverslips with enteroendocrine cells. Patch-clamp electrophysiology was performed 1-5 days after plating.
Enteroendocrine cells and nodose neurons were co-cultured as described above. Co-culture coverslips were placed in the recording chamber filled with extracellular solution. Recordings were carried out at room temperature using a MultiClamp 700B amplifier (Axon Instruments), digitized using a Digidata 1550A (Axon Instruments) interface, and pClamp software (Axon Instruments) for data acquisition. Data was filtered at 1 kHz and sampled at 10 kHz. CCK-producing enteroendocrine cells were identified by GFP expression and neurons by their morphology and lack of fluorescence. Recordings were made using borosilicate glass pipettes pulled to ˜3.5 MΩ resistance [DVB4]. Extracellular solution contained (in mM): 140 NaCl, 5 KCl, 2 CaCl2, 2 MgCl2, 10 HEPES, pH 7.4 (300-305 mOsmol). For voltage-clamp recordings, intracellular solution contained (in mM): 140 CsF, 10 NaCl, 0.1 CaCl2, 2 MgCl2, 1.1 EGTA, 10 HEPES, 10 sucrose (pH, 7.25, 290-295 mOsmol). For current-clamp recordings, intracellular solution contained (in mM): 140 KCl, 0.5 EGTA, 5 HEPES, 3 Mg-ATP, 10 sucrose (pH, 7.25, 290-295 mOsmol). Neurons were held at −70 mV for 5 min after patching in voltage-clamp mode (to stabilize cells), and then switched to the current-clamp mode. At the resting membrane potential, cell properties such as input resistance, and spike threshold were determined using 200 ms steps from −40 pA to 100 pA in 20 pA increment. […] After glucose exposure, neurons were tested with a current or voltage pulse to confirm the health of the cell. For glutamate receptor blocker experiments, the […]® Micro-perfusion system (Automate Scientific, Inc.) was used. Once the neuron was patched, the […]® nozzle was brought to within 100 μm of the cell, while extracellular solution was perfusing. Kynurenic acid (3 mM) was perfused, then washed for 5 minutes after and the neuron was tested again. EPSC responses were recorded for 1 second after light stimulation. Data are presented as the mean±S.E.M. and significance was determined using a two-tailed Student's t test.

O=C[C@H](O)[C@@H](O)[C@H](O)[C@H](O)CO [D-glucose]
magnitude of the sugar response as percent fluorescence of the KCl response ([1]; 20 mM D-glucose, 40 mM KCl control): 56.0±20% | calcium transients, percent of the KCl control response ([1]; D-glucose (10 mM) as printed): 56.0%±20.0 | excitatory postsynaptic potentials and action potentials in connected neurons [2]: evoke excitatory postsynaptic potentials and action potentials | excitatory postsynaptic potentials and action potentials in connected neurons ([2]; listed as glucose): evoked EPSCs; also recorded: induced excitatory post-synaptic potentials and action potential spikes | action potentials in the connected neurons (average) ([2]; current-clamp, n=5 pairs): 2±0.32 | average current of the excitatory post-synaptic potentials (EPSPs) ([2]; voltage-clamp, n=6): 61.65±15.21 pA | average frequency of the excitatory post-synaptic potentials ([2]; voltage-clamp, n=6): 0.86±0.17 Hz
